We go through six molecules from US9314026B2, “Heterocyclylpyri(mi)dinylpyrazole” (Bayer Intellectual Property GmbH, priority 2011, dated 2016).

A short description of data set [1]: determination of the log P values by HPLC on a reverse phase column (C18), EEC-Directive 79/831 Annex V.A8. The class given is physicochemical. Summed up:
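Log P determined per EEC-Directive 79/831 Annex V.A8 by reverse-phase (C18) HPLC (methods A, B) or UPLC (method C), with mass detection.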

For data set [2], the system named is Sphaerotheca fuliginea. Description: Sphaerotheca test (cucumber)/preventive. The data set is classed as in vivo. To be noted: Podosphaera fuliginea, 168 h, 500 ppm of active ingredient, preventive, evaluated 7 days after inoculation, 0% = untreated control, 100% = no disease, read-out: efficacy. Here is the method: (§1) Sphaerotheca Test (Cucumber)/Preventive Solvent: 49 parts by weight of N,N-Dimethylformamide Emulsifier: 1 part by weight of Alkylarylpolyglycolether To produce a suitable preparation of active compound, 1 part by weight of active compound is mixed with the stated amounts of solvent and emulsifier, and the concentrate is diluted with water to the desired concentration. To test for preventive activity, young plants are sprayed with the preparation of active compound at the stated rate of application. One day after this treatment, the plants are inoculated with an aqueous spore suspension of Sphaerotheca fuliginea.

Data set [3] has as its system Alternaria solani. Description: Alternaria test (tomato)/preventive. To be noted: 168 h, 500 ppm of active ingredient, preventive, evaluated 7 days after inoculation, read-out: efficacy. The data set is classed as in vivo. As for the experimental part: as §1, with “Alternaria” for “Sphaerotheca”, “(Tomato)/Preventive” for “(Cucumber)/Preventive”, “Alternaria solani. […] Then the plants are placed in an incubation cabinet at approximately 20° C. and a relative atmospheric humidity of 96%.” for “Sphaerotheca fuliginea.”

Data set [4] relates to Leptosphaeria nodorum. Description: Leptosphaeria test (wheat)/preventive. The data set is classed as in vivo. To be noted: Parastagonospora nodorum, 500 ppm of active ingredient, preventive, evaluated 7-9 days after inoculation, read-out: efficacy. As for the experimental part: (§2) Leptosphaeria Test (Wheat)/Preventive Solvent: 49 parts by weight of N,N-Dimethylformamide Emulsifier: 1 part by weight of Alkylarylpolyglycolether To produce a suitable preparation of active compound, 1 part by weight of active compound is mixed with the stated amounts of solvent and emulsifier, and the concentrate is diluted with water to the desired concentration. To test for preventive activity, young plants are sprayed with a preparation of active compound at the stated rate of application. One day after this treatment, the plants are inoculated with an aqueous spore suspension of Leptosphaeria nodorum.

Data set [5] has as its system Pyrenophora teres. Description: Pyrenophora test (barley)/preventive. The class given is in vivo. To be noted: 500 ppm of active ingredient, preventive, evaluated 7-9 days after inoculation, read-out: efficacy. Here is the method: as §1, with “Pyrenophora” for “Sphaerotheca”, “(Barley)/Preventive” for “(Cucumber)/Preventive”, “Pyrenophora teres.” for “Sphaerotheca fuliginea.”

Data set [6] deals with Puccinia recondita. Description: Puccinia test (wheat)/preventive. The data set is classed as in vivo. To be noted: 500 ppm of active ingredient, preventive, evaluated 7-9 days after inoculation, read-out: efficacy. Here is the method: as §2, with “Puccinia Test (Wheat)/Preventive” for “Leptosphaeria Test (Wheat)/Preventive”, “sprayed with the preparation of” for “sprayed with a preparation of”, “suspension of Puccinia recondita.” for “suspension of Leptosphaeria nodorum.”

In data set [7] the test system is Pyricularia oryzae. Description: whole plant or invertebrate. The class given is in vivo. To be noted: 168 h, read-out: efficacy.
The test system of data set [8] is Phytophthora infestans. Description: whole plant or invertebrate. The data set is classed as in vivo. To be noted: 72 h, read-out: efficacy.
Data set [9] deals with Plasmopara viticola. Description: Plasmopara test (grapevines)/preventive. The class given is in vivo. To be noted: 100 ppm of active ingredient, preventive, evaluated 6 days after inoculation. Here is the method:
Plasmopara Test (Grapevines)/Preventive Solvent: 24.5 parts by weight of acetone • 24.5 parts by weight of dimethylacetamide Emulsifier: 1 part by weight of alkylaryl polyglycol ether To produce a suitable preparation of active compound, 1 part by weight of active compound is mixed with the stated amounts of solvent and emulsifier, and the concentrate is diluted with water to the desired concentration. To test for preventive activity, young plants are sprayed with the preparation of active compound at the stated rate of application. […] The plants are then misted and placed for 1 day in an incubation cabinet.

Data set [10] concerns Botrytis cinerea. Description: Botrytis test (beans)/preventive. The data set is classed as in vivo. To be noted: 48 h, 100 ppm of active ingredient, preventive, size of lesions evaluated 2 days after inoculation, read-out: efficacy. Here is the method:
Botrytis Test (Beans)/Preventive Solvent: 24.5 parts by weight of acetone • 24.5 parts by weight of dimethylacetamide Emulsifier: 1 part by weight of alkylaryl polyglycol ether To produce a suitable preparation of active compound, 1 part by weight of active compound is mixed with the stated amounts of solvent and emulsifier, and the concentrate is diluted with water to the desired concentration. To test for preventive activity, young plants are sprayed with the preparation of active compound. After the spray coating has dried on, 2 small pieces of agar covered with growth of Botrytis cinerea are placed on each leaf.

The test system of data set [11] is Venturia inaequalis. Description: Venturia test (apples)/preventive. To be noted: 100 ppm of active ingredient, preventive, evaluated 10 days after inoculation. The class given is in vivo. As for the experimental part:
Venturia Test (Apples)/Preventive Solvent: 24.5 parts by weight of acetone • 24.5 parts by weight of dimethylacetamide Emulsifier: 1 part by weight of alkylaryl polyglycol ether To produce a suitable preparation of active compound, 1 part by weight of active compound is mixed with the stated amounts of solvent and emulsifier, and the concentrate is diluted with water to the desired concentration. To test for preventive activity, young plants are sprayed with the preparation of active compound at the stated rate of application.

Data set [12] relates to Septoria tritici. Description: Septoria tritici-test (wheat)/preventive. The data set is classed as in vivo. To be noted: 500 ppm of active ingredient, preventive, evaluated 21 days after inoculation. As for the experimental part: Septoria tritici-Test (Wheat)/Preventive Solvent: 49 parts by weight of n,n-dimethylacetamid Emulsifier: 1 part by weight of alkylaryl polyglycol ether To produce a suitable preparation of active compound, 1 part by weight of active compound or active compound combination is mixed with the stated amounts of solvent and emulsifier, and the concentrate is diluted with water to the desired concentration. To test for preventive activity, young plants are sprayed with the preparation of active compound or active compound combination at the stated rate of application. After the spray coating has been dried, the plants are sprayed with a spore suspension of Septoria tritici.

Data set [13] concerns Fusarium nivale (var. majus). Description: Fusarium nivale (var. majus)-test (wheat)/preventive. The class given is in vivo. To be noted: Microdochium nivale, 120 h, 500 ppm of active ingredient, preventive, evaluated 5 days after inoculation, read-out: efficacy. As for the experimental part:
Fusarium nivale (Var. Majus)-Test (Wheat)/Preventive Solvent: 49 parts by weight of n,n-dimethylacetamid Emulsifier: 1 part by weight of alkylaryl polyglycol ether To produce a suitable preparation of active compound, 1 part by weight of active compound or active compound combination is mixed with the stated amounts of solvent and emulsifier, and the concentrate is diluted with water to the desired concentration. To test for preventive activity, young plants are sprayed with the preparation of active compound or active compound combination at the stated rate of application. After the spray coating has been dried, the plants are slightly injured by using a sandblast and afterwards they are sprayed with a conidia suspension of Fusarium nivale (var. majus).

Data set [14] deals with Fusarium graminearum. Description: whole plant or invertebrate. To be noted: in Hordeum vulgare, 120 h, read-out: efficacy. The data set is classed as in vivo.

Structures are written as SMILES.

As a reminder, the chromatographic logP is a lipophilicity value derived from retention on a column. A lower chromatographic logP goes with a more hydrophilic compound. In the case of `CCOC(=O)N(C(=O)C1CC1)c1cc(-c2c(-c3ccc(F)cc3)nn3c2CCC3)ccn1` [Example 11, ethyl (cyclopropylcarbonyl){4-[2-(4-fluorophenyl)-5,6-dihydro-4H-pyrrolo[1,2-b]pyrazol-3-yl]pyridin-2-yl}carbamate], the chromatographic logP in data set [1] is 2.78. Also, the pest or weed control at 500 ppm in [2] turned out to be 95%; in data set [3], 95%; in data set [4], 95%; in data set [5], 95%; in data set [6], 100%; in data set [7], 70%. Also, the pest or weed control at 100 ppm came out at 86% in data set [8] and 74% in [10]. For the same molecule, the efficacy in data set [9] came out at 90%.

With `CCC(=O)N(C(=O)C1CC1)c1cc(-c2c(-c3ccc(F)cc3)nn3c2CCC3)ccn1` [Example 9, N-{4-[2-(4-fluorophenyl)-5,6-dihydro-4H-pyrrolo[1,2-b]pyrazol-3-yl]pyridin-2-yl}-N-propionylcyclopropanecarboxamide], in data set [1], the chromatographic logP amounted to 2.87. Also, the pest or weed control at 500 ppm was found to be 100% in data set [2]; 95% in data set [4]; 95% in [5]; 100% in data set [6]; 90% in data set [7]. Moreover, the pest or weed control at 100 ppm in [8] came to 79%; in data set [10], 96%. The efficacy is 95% in data set [9] and 100% in data set [11].

The molecule `CCC(=O)N(C(C)=O)c1cc(-c2c(-c3ccc(F)cc3)nn3c2CCC3C)ccn1` (stereo not drawn) [Example 6, N-acetyl-N-{4-[2-(4-fluorophenyl)-6-methyl-5,6-dihydro-4H-pyrrolo[1,2-b]pyrazol-3-yl]pyridin-2-yl}propanamide] had a chromatographic logP in data set [1] of 2.78. The pest or weed control at 500 ppm stood at 95% in data set [2]; 70% in [3]; 95% in [4]; 100% in [5]; 100% in data set [6]; 90% in data set [7]. Moreover, the values for the pest or weed control at 500 ppm in [13] and in data set [14] were 100% and 83%, respectively. In addition, the pest or weed control at 100 ppm was found to be 91% in [8] and 89% in [10]. In addition, the efficacy in [9] was 94%; in [11], 98%; in [12] it was 86%.

In data set [1], `CCC(=O)N(C(C)=O)c1cc(-c2c(-c3ccc(F)cc3)nn3c2CCC3)ccn1` [Example 5, N-acetyl-N-{4-[2-(4-fluorophenyl)-5,6-dihydro-4H-pyrrolo[1,2-b]pyrazol-3-yl]pyridin-2-yl}propanamide] came in with a chromatographic logP of 2.43. For the same molecule, the pest or weed control at 500 ppm in [2] was determined as 100%; in data set [3], 90%; in data set [4], 95%; in data set [5], 100%; in [6] it was 100%; in data set [7] it was 95%. The figures for the pest or weed control at 500 ppm in data set [13] and in data set [14] were 100% and 92%, respectively. Moreover, the pest or weed control at 100 ppm in data set [8] was 83%; in [10], 100%. The values for the efficacy in [9], in data set [11] and in [12] were 94%, 99% and 86%, respectively.

In data set [1], `CCC(=O)N(C(=O)CC)c1cc(-c2c(-c3ccc(F)cc3)nn3c2CCC3)ccn1` [Example 7, N-{4-[2-(4-fluorophenyl)-5,6-dihydro-4H-pyrrolo[1,2-b]pyrazol-3-yl]pyridin-2-yl}-N-propionylpropanamide] yielded a chromatographic logP of 2.81. For the same molecule, the pest or weed control at 500 ppm in data set [2] is 98%; in [3], 90%; in [4] it was 90%; in data set [5], 95%; in data set [6], 95%; in data set [7], 70%. The pest or weed control at 500 ppm is 100% in [13] and 92% in [14]. For the same molecule, the pest or weed control at 100 ppm in data set [8] turned out to be 95%; in data set [10], 99%. For the same molecule, the figures for the efficacy in data set [9], in data set [11] and in [12] were 100%, 100% and 86%, respectively.

`CC(=O)N(C(C)=O)c1cc(-c2c(-c3ccc(F)cc3)nn3c2CCCC3)ccn1` [Example 1, N-acetyl-N-{4-[2-(4-fluorophenyl)-4,5,6,7-tetrahydropyrazolo[1,5-a]pyridin-3-yl]pyridin-2-yl}acetamide]: the chromatographic logP in data set [1] was 2.42. For the same molecule, the pest or weed control at 500 ppm in [2] was 94%; in [3], 100%; in data set [4], 95%; in data set [5], 95%; in [6], 100%; in [7], 80%. For the same molecule, the pest or weed control at 500 ppm in data set [13] and in data set [14] was 100% throughout. Further, the pest or weed control at 100 ppm in data set [8] turned out to be 94%; in [10], 88%. Further, the efficacy in [9] is 75%; in data set [12], 100%.
